Where a SMILES comes first, the peptide text is derived from it.
Biological target: Neurotensin receptor type 1 (Homo sapiens, UniProt P30989)
Test: Displacement of [3H]neurotensin from NTR1 in human HT29 cells after 30 mins by liquid scintillation spectrometry
Assay type: cell-based, HT-29
Conditions: for Activity: HT-29

Chain of Neurotensin receptor type 1 (P30989 whole entry): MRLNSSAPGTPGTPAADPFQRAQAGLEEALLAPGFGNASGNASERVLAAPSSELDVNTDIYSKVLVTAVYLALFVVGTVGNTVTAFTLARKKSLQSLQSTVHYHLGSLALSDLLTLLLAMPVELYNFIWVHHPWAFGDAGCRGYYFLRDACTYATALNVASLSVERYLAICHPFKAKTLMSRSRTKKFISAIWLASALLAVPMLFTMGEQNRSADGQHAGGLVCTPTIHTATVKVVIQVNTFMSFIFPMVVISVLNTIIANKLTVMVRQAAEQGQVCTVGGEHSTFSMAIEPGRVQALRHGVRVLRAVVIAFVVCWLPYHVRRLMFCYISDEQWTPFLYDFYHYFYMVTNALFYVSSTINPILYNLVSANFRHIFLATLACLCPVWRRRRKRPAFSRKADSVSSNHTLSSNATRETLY

IC50 [nM]	Activity	SMILES
1		CC(C)C[C@H](NC(=O)[C@H](CC(C)C)NC(=O)[C@H](Cc1ccc(O)cc1)NC(=O)[C@@H]1CCCN1C(=O)[C@H](CCCNC(=N)N)NC(=O)[C@@H](N)CCCNC(=N)N)C(=O)O (H-RRPYLL-OH)
700		CSCC[C@H](NC(=O)CCCCn1cc(CCCC(=O)N[C@@H](CCCN=C(N)N)C(=O)N[C@@H](CCCN=C(N)N)C(=O)N2CCC[C@H]2C(=O)N[C@@H](Cc2ccc(O)cc2)C(=O)N[C@@H](CC(C)C)C(=O)N[C@@H](CC(C)C)C(=O)O)nn1)C(=O)N[C@@H](CCC(N)=O)C(=O)N[C@@H](CO)C(=O)N[C@H](C(=O)N1CCC[C@H]1C(=O)N[C@@H](CC(C)C)C(=O)O)[C@@H](C)O
8300	Dose-dependent effect	CSCC[C@H](NC(=O)CCCCn1cc(CCCC(=O)N[C@@H](CCCNC(=N)N)C(=O)N[C@@H](CCCNC(=N)N)C(=O)N2CCC[C@H]2C(=O)N[C@@H](Cc2ccc(O)cc2)C(=O)N[C@@H](CC(C)C)C(=O)N[C@@H](CC(C)C)C(=O)O)nn1)C(=O)N[C@@H](CCC(N)=O)C(=O)N[C@@H](CO)C(=O)N[C@H](C(=O)N1CCC[C@H]1C(=O)N[C@@H](CC(C)C)C(=O)O)[C@@H](C)OP(=O)(O)O
	Dose-dependent effect	CSCC[C@H](NC(=O)CCCCn1cc(CCCC(=O)N[C@@H](CCCNC(=N)N)C(=O)N[C@@H](CCCNC(=N)N)C(=O)N2CCC[C@H]2C(=O)N[C@@H](Cc2ccc(O)cc2)C(=O)N[C@@H](CC(C)C)C(=O)N[C@@H](CC(C)C)C(=O)O)nn1)C(=O)N[C@@H](CCC(N)=O)C(=O)N[C@@H](CO)C(=O)N[C@H](C(=O)N1CCC[C@H]1C(=O)N[C@@H](CC(C)C)C(=O)O)[C@@H](C)O
